Experimental data published in patent US20140154730A1, “METHOD FOR STABILIZATION OF FLUID BIOLOGICAL SAMPLES” (DENATOR AB, priority 2011, published 2014).

What was measured:
[1] = Stabilization of oseltamivir in mouse blood spotted on Whatman FTA DMPK-C card; assay type: in vitro ADME; conditions: mouse blood spiked 500 ng/mL; for % oseltamivir metabolized: 25 μL spot on Whatman FTA DMPK-C card
Experimental: Oseltamivir is an oral prodrug of oseltamivir carboxylate, a selective inhibitor of viral neuramidase glycoprotein in influenza A. Oseltamivir undergoes fast bioconversion to oseltamivir carboxylate mostly by carboxylesterase 1 (CES 1).
Mouse blood was spiked with oseltamivir, 500 ng/mL. 25 μL, blood was spotted on Whatman FTA DMPK-C card. Spot were left to dry at room temperature, or heat treated using a Stabilizor™ System (Denator A B, Göteborg, Sweden) then left to dry.

[2] = Effect of different drying conditions on oseltamivir metabolism in spotted mouse blood; assay type: in vitro ADME; conditions: mouse blood spiked 2000 ng/mL, 25 μL spot on Whatman FTA DMPK-C card
Experimental: (§1) FIG. 2 is a graph showing the amount of metabolized Oseltamivir in samples following different treatments. Samples A were treated according to standard procedures according to manufacturer's instructions, i.e. dried in open air for 2 hrs. Samples B were dried in closed bags with silica. Samples C were heat stabilized and subsequently dried in open air. Samples D were heat stabilized and subsequently dried in closed bags with silica. Values in FIG. 2 showing % oseltamivir metabolized are mean of three samples
as §1, with “Mouse blood was spiked with oseltamivir, 2000 ng/mL. 25 μL, blood was spotted on Whatman FTA DMPK-C card. Spots were allowed to dry under” for “FIG. 2 is a graph showing the amount of metabolized Oseltamivir in samples following”, “conditions, with our without prior heat stabilization.” for “treatments.”, “samples.” for “samples”

SMILES: CCOC(=O)C1=C[C@@H](OC(CC)CC)[C@H](NC(C)=O)[C@@H](N)C1 [oseltamivir]
- % oseltamivir metabolized ([1]; treatment: Drying at room temperature only): 27%
- % oseltamivir metabolized ([1]; treatment: Heating (Stabilizor System) then left to dry): 3%
- metabolism of the prodrug, heat treatment compared to only passive drying ([1]; sample on paper, heat treated): strongly reduced the metabolism
- amount of metabolized oseltamivir, not heat stabilized, dried in closed bags with silica (Samples B) ([2]; compared to drying in open air): even higher amount of metabolized oseltamivir
- amount of metabolized oseltamivir, heat stabilized, dried in closed bags with silica (Samples D) ([2]; compared to drying in open air (Samples C)): does not affect the amount of metabolized oseltamivir
- amount of metabolized oseltamivir, heat stabilized samples (C, D) versus not heat stabilized ([2]; mean of three samples): significant lower amount of metabolized oseltamivir
